Data set [1] concerns NIH/3T3 cells. The experiment in a line: Drug toxicity to 3T3 cells (Alamar Blue, 96 h). The data set is classed as cell-based. (In general: The colour change of resazurin is a common sign of viable cells or microbes.)
Data set [2] is described as follows: Aqueous solubility. Type of data set: physicochemical.
The test system of data set [3] is HepG2 cells. The experiment in a line: Drug toxicity to HepG2 cells (MTT, 48 h). Type of data set: cell-based, human. The conditions noted are these: tested concentration ranges based on compound solubility. Put shortly: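 HepG2 cells plated overnight, then exposed 48 h to twelve 1.6-fold dilutions (57–10,000 ng/mL) in duplicate at 37° C, 5% CO2. MTT added for 1 h at room temperature; formazan dissolved in acidified isopropanol, absorbance read.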

Data set [4] concerns T. cruzi amastigote (Tulahuen strain expressing β-galactosidase). Kind of data set: Intracellular T. cruzi assay in 3T3 cells (beta-galactosidase, 96 h). The data set is classed as cell-based, Trypanosoma cruzi. The following applies: for EC50: Trypanosoma cruzi, TULAHUEN, NIH3T3, 96 h, read-out: T. cruzi amastigote EC50. In a few lines: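 3T3 cells in phenol-red-free DMEM with 2% FBS were infected with Tulahuen β-galactosidase trypomastigotes, 5×10^4 per well, and exposed to compounds from 50 μM in 1:2 serial dilutions, in triplicate. After 96 h at 37°C, 5% CO2, 500 μM CPRG in PBS with 0.5% NP40 was added for 4 h; absorbance was read at 590–595 nm.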

For data set [5], the system named is T. b. brucei (strain 427). The experiment in a line: T. b. brucei proliferation assay (PrestoBlue, 48 h). The following applies: Trypanosoma brucei. Type of data set: cell-based, Trypanosoma brucei brucei. Put shortly: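 Viability read by PrestoBlue fluorescence (530/590 nm) after 4 h with reagent, following 48 h compound exposure at 37°C, 5% CO2. Parasites (strain 427, 2.5×10^3 per well, HMI-9 medium) received triplicate 1:2 serial dilutions starting at 50 μM.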

A short description of data set [6]: Plasma and brain pharmacokinetics after single i.p. dose. The conditions noted are these: 10 mg/kg i.p., female BALB/c mice; for Kp: female, BALB/c, brain/plasma, 10 mg/kg. Type of data set: in vivo. As for the experimental part:
PK parameters were measured for both brain and plasma following a single intraperitoneal (i.p.) dose of 10 mg/kg (see Supplementary information, S5 and S6 Tables).
Table S5. Pharmacokinetic parameters of NEU-1060 (compound 14) in plasma and brain following a single intraperitoneal administration in female BALB/c mice (Dose:
Compound Dose Route Matrix Tmax Cmax AUClast AUCinf […]
*The density of brain homogenate was considered as 1 which is equivalent to plasma density (1); Brain conc. and exposure expressed as ng/g and hr.ng/g, respectively.
NC – not calculated due to improper elimination phase
Table S6. Brain to plasma exposure ratio of NEU-1060 (compound 14) after a single intraperitoneal administration in female BALB/c mice (Dose: 10 mg/kg)
Compound Dose Route Matrix Cmax Cmax AUClast Brain to plasma
(mg/kg) (ng/mL) ratio (hr*ng/mL) exposure ratio

Data set [7] is described as follows: Human plasma protein binding. The following applies: read-out: Human PPB (converted). Type of data set: in vitro ADME.

Broadly, the solubility is the concentration that dissolves in the medium under given conditions. Read a low solubility as a poorly soluble substance. Usually EC50 stands for the concentration giving half of the maximal effect. As usually defined, the Cmax is the highest concentration seen after dosing. Usually Tmax stands for the time from dosing to the highest level. Usually AUC(0-t) stands for exposure summed from dosing to a finite time, without extrapolation to infinity. Read a high AUC(0-t) as high exposure.

≈ marks a conversion by molar mass, not a printed value. Where two headings read alike, the source gives them in different places.

For the compound `CN1CCN(c2ncc(-c3ccc4c(Nc5cnccn5)ccnc4c3)cn2)CC1` [Compound 22], in data set [1], the “3T3 TC50” value worked out at 34 µM. In data set [2], the concentration in solution (solubility) was 44 µM (≈ 17.5 µg/mL). Also, the “HepG2 TC50” value in data set [3] was more than 38 µM. For the same compound, the EC50 in data set [4] was 6 µM.
For `CN1CCN(c2ncc(-c3ccc4c(Nc5ccc(OCc6cccc(F)c6)c(Cl)c5)ccnc4c3)cn2)CC1` [Compound 14], the EC50 is 0.006 µM in data set [5] and 0.09 µM in data set [4]. This compound also returned a solubility in data set [2] of less than 1 µM. Also, the “Brain to plasma exposure ratio” value in data set [6] (AUClast based, listed as NEU-1060, 10 mg/kg) is recorded as 7.43. The same compound came in with an AUClast in data set [6] (brain) of 3474.83 ng·h/g. For the same compound, the Kp in data set [6] (mouse, ip, AUClast based, read-out: Brain to plasma exposure ratio) was found to be 7.4; in data set [6] (mouse, ip, brain to plasma, read-out: Cmax ratio), 2.85. Also, the peak concentration (Cmax) in data set [6] (mouse, ip, brain) was 211 ng/g; in data set [6] (mouse, ip, plasma), 74 ng/mL. The Tmax in data set [6] (mouse, ip, brain) is 4 h; in data set [6] (mouse, ip, plasma) it was 0.25 h. Moreover, in data set [6] (mouse, ip, plasma), the AUC(0-t) amounted to 468 ng·h/mL. The “SI (T. cruzi)” value in data set [4] (selectivity index calculated relative to 3T3 cells) is 170. In addition, the fraction unbound in data set [7] is less than 0.01.

These data come from PMC6283615, “Anilinoquinoline based inhibitors of trypanosomatid proliferation” (PLoS Neglected Tropical Diseases, 2018).
